Source: US10696707B2, “Polyene macrolide derivative” (Shionogi & Co., Ltd., priority 2014, dated 2020)
Converted amounts (≈) assume the structure as drawn.

How the values were obtained:
[1] = system: C. albicans ATCC90028; assay: Antifungal activity test, MIC by broth microdilution (CLSI M27-A3); format: cell-based
Method in brief: (§1)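 CLSI broth microdilution in RPMI 1640 with 2% glucose, 0.165 mol/L MOPS, pH 7.0; two-fold DMSO dilutions. MIC = lowest concentration giving 100% inhibition versus growth control.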

[2] = system: A. fumigatus ATCC204305; assay: Antifungal activity test, MIC by broth microdilution (CLSI M38-A2); format: cell-based
Method in brief: as §1

[3] = system: A. flavus ATCC204304; assay: as above; format: cell-based
Method in brief: as §1

[4] = system: red blood cells (5% RBC suspension); assay: Test Example 2-2: in vitro hemolytic activity test (upper limit 200 μmol/L); format: cell-based; details: read-out: hemolysis IC50
Procedure: Nephrotoxic potentials of the compounds of the present invention whose X is —N(R^F)—CO—X^1 and X^1 is the group represented by formula (III) and T is —N(R^a5)— were investigated by in vitro hemolytic activity test under the condition that the upper limit was 200 μmol/L as the required concentration to 50% of hemolysis (IC50).
Defibrinated sterile blood was centrifuged at 700×g for 3 minutes and, and the supernatant was removed for 100% of red blood cells. After the cleaning with physiological saline, the washed blood cells was suspended in the medium (Earle's balanced salt sodium, bicarbonate, 0.1 g/L L-glutamine without phenol red), and was diluted by 5% (5% RBC suspension).
The washed blood was diluted by 5% in water for injection (solution of complete hemolysis), and was used as the indication of optical density for complete hemolysis.
The compounds of the present invention solution in DMSO (several and doubling dilutions starting from 10 mmol/L), DMSO as the negative control, and Amphotericin B as the positive control were used, and each 5 μL of these was added in to a well of V-form 96 well type microplate. Finally, the maximum concentration of the compounds of the present invention solution in DMSO was 200 μmol/L by adding 245 μL of the medium or 5% RBC suspension into the well.
Two hundred fifty μL of the solution of complete hemolysis was added into another well and the microplate was incubated at 37° C. in 5% of CO2 concentration for an hour.
After the incubation, each 100 μL of supernatants in wells was collected by centrifugation of the microplate at 300×g for 5 minutes and was located on a well of flat-form 96 well type microplate. An absorbance of each supernatant was measured at wavelength of 540 nm.
Percent hemolysis was calculated by using the followed equation. The required concentration to 50% of hemolysis (IC50) was calculated based on the percent hemolysis. […] Hemolysis (%)=(CR−VM)×100÷(VL−VR) Where:
CR: Absorbance of 5% RBC suspension incubated with the compounds of the present invention solution in DMSO
VM: Absorbance of medium incubated with the compounds of the present invention solution in DMSO
VL: Absorbance of solution of complete hemolysis
VR: Absorbance of 5% RBC suspension incubated with DMSO
The “>200” in the table means above IC50 value exceeded the upper concentration 200 μmol/L.

[5] = system: red blood cells (5% RBC suspension); assay: Test Example 2-1: in vitro hemolytic activity test (upper limit 50, 80, 100 or 200 μmol/L); format: cell-based; details: Erythrocyte, 1 h, read-out: hemolysis IC50
Method in brief: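 A 5% suspension of washed red cells in Earle's medium was exposed to doubling dilutions of compound from DMSO, with maxima of 50, 80, 100 or 200 μmol/L final, for 1 h at 37 °C, 5% CO2. Supernatant absorbance at 540 nm was normalised to water-lysed cells. IC50 is the concentration giving 50% hemolysis; ">" values exceed the top concentration.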

[6] = Test Example 4: nephrotoxicity, kidney marker gene expression by quantitative RT-PCR after intravenous administration; format: in vivo; details: mouse, kidney, mice, nephrotoxicity positive when ΔΔCt of two-third of target genes (Kim1, Timp1, Lcn2) >3
Procedure: The expression level of marker genes for nephrotoxicity was determined by quantitative RT-PCR to evaluate nephrotoxicity of the compound of the present invention. The compound of the present invention or vehicle was intravenously administered to mice and their kidneys were isolated. After removal of the kidney capsule, all of the kidneys were sliced into two equal halves, and stored at −80° C. in RNAlater® (Ambion) until use. Samples were disrupted and homogenized in QIAzol Lysis Reagent with TissueLyser (Qiagen), and total RNA was extracted using an RNeasy® Mini kit (Qiagen). Total RNA concentrations were determined to read OD260 by absorptiometer.
The level of expression of the following target genes was determined using one-step quantitative real-time PCR: Kim1, Timp1, and Lcn2. Total RNA (80 ng/2 μL) was used as the template, and TaqMan Gene Expression Assays (Applied Biosystems, for Haver1 (Kim1), assay ID: Mm00506686_m1; Timp1, Mm01341361_m1; Lcn2, Mm01324470_m1) or TaqMan Endogenous Controls (Gapdh, predesigned assay reagent supplied by ABI, Applied Biosystems) were employed as gene-specific probe and primer sets. Quantitative RT-PCR was performed using a QuantiTect™ Probe RT-PCR kit (Qiagen), and transcript levels were quantitated with an Applied Biosystems 7900HT Fast Real Time PCR System (Applied Biosystems). Reverse transcription and amplification conditions were set as follows: 50° C. for 30 min, 95° C. for 15 min, followed by 40 cycles at 95° C. for 15 s and 60° C. for 1 min. The resulting cycle threshold (Ct) value was processed based on the comparative Ct method (ΔΔCt Method), where Gapdh was used as an endogenous reference gene to normalize the expression level of target genes.
The ΔCt was calculated as follows: Ct, Gapdh−Ct, target gene.
The ΔΔCt was calculated as follows: ΔCt, treated sample−ΔCt, average of vehicle control sample.
Higher ΔΔCt values indicate higher expression rates of the target gene and therefore high risk for nephrotoxicity.

[7] = C. albicans ATCC90028, broth microdilution, 35° C., 24-48 hours, 100% inhibition
[8] = A. fumigatus ATCC204305, broth microdilution, 35° C., 24-48 hours, 100% inhibition
[9] = A. flavus ATCC204304, broth microdilution, 35° C., 24-48 hours, 100% inhibition
[10] = Test Example 2-2, hemolysis method 200 (upper concentration 200 μmol/L), 5% RBC suspension, 37° C., one hour

SMILES: C[C@@H]1[C@H](O)[C@@H](C)/C=C/C=C/C=C/C=C/C=C/C=C/C=C/[C@H](O[C@@H]2O[C@H](C)[C@@H](O)[C@H](N)[C@@H]2O)C[C@@H]2O[C@](O)(C[C@@H](O)C[C@@H](O)[C@H](O)CC[C@@H](O)C[C@@H](O)CC(=O)O[C@H]1C)C[C@H](O)[C@H]2NC(=O)NNC(=O)c1cccnc1 [I-45]
- MIC [1, 7]: 0.25 mg/L (≈ 0.236 µM)
- MIC [2, 8]: 1 mg/L (≈ 0.945 µM)
- MIC [3, 9]: 0.5 mg/L (≈ 0.472 µM)
- IC50 [4, 10]: > 200 µM

SMILES: C[C@@H]1[C@H](O)[C@@H](C)/C=C/C=C/C=C/C=C/C=C/C=C/C=C/[C@H](O[C@@H]2O[C@H](C)[C@@H](O)[C@H](N)[C@@H]2O)C[C@@H]2O[C@](O)(C[C@@H](O)C[C@@H](O)[C@H](O)CC[C@@H](O)C[C@@H](O)CC(=O)O[C@H]1C)C[C@H](O)[C@H]2NC(=O)NNC(N)=O [I-60]
- MIC ([1]; Candida albicans, ATCC90028): 0.125 mg/L (≈ 0.125 µM)
- MIC ([2]; Aspergillus fumigatus, ATCC204305): 0.5 mg/L (≈ 0.502 µM)
- MIC ([3]; Aspergillus flavus, ATCC204304): 0.5 mg/L (≈ 0.502 µM)
- IC50 ([4]; Erythrocyte, 1 h): > 200 µM

SMILES: C[C@@H]1[C@H](O)[C@@H](C)/C=C/C=C/C=C/C=C/C=C/C=C/C=C/[C@H](O[C@@H]2O[C@H](C)[C@@H](O)[C@H](N)[C@@H]2O)C[C@@H]2O[C@](O)(C[C@@H](O)C[C@@H](O)[C@H](O)CC[C@@H](O)C[C@@H](O)CC(=O)O[C@H]1C)C[C@H](O)[C@H]2NC(=O)NNC(=O)NO [I-218]
- MIC [1, 7]: 0.25 mg/L (≈ 0.247 µM)
- MIC [2, 8]: 1 mg/L (≈ 0.988 µM)
- MIC [3, 9]: 0.5 mg/L (≈ 0.494 µM)
- IC50 [4, 10]: > 200 µM

SMILES: C[C@@H]1[C@H](O)[C@@H](C)/C=C/C=C/C=C/C=C/C=C/C=C/C=C/[C@H](O[C@@H]2O[C@H](C)[C@@H](O)[C@H](N)[C@@H]2O)C[C@@H]2O[C@](O)(C[C@@H](O)C[C@@H](O)[C@H](O)CC[C@@H](O)C[C@@H](O)CC(=O)O[C@H]1C)C[C@H](O)[C@H]2C(=O)NC(CO[C@H]1O[C@H](CO)[C@@H](O)[C@H](O)[C@@H]1O)CO[C@H]1O[C@H](CO)[C@@H](O)[C@H](O)[C@@H]1O [I-396]
- IC50 [5]: > 100 µM
- MTD [6]: 16 mg/kg

SMILES: C[C@@H]1[C@H](O)[C@@H](C)/C=C/C=C/C=C/C=C/C=C/C=C/C=C/[C@H](O[C@@H]2O[C@H](C)[C@@H](O)[C@H](NC(=N)N)[C@@H]2O)C[C@@H]2O[C@](O)(C[C@@H](O)C[C@@H](O)[C@H](O)CC[C@@H](O)C[C@@H](O)CC(=O)O[C@H]1C)C[C@H](O)[C@H]2CO [I-394]
- MTD [6]: > 24 mg/kg

SMILES: C[C@@H]1[C@H](O)[C@@H](C)/C=C/C=C/C=C/C=C/C=C/C=C/C=C/[C@H](O[C@@H]2O[C@H](C)[C@@H](O)[C@H](N)[C@@H]2O)C[C@@H]2O[C@](O)(C[C@@H](O)C[C@@H](O)[C@H](O)CC[C@@H](O)C[C@@H](O)CC(=O)O[C@H]1C)C[C@H](O)[C@H]2NC(=O)NO [I-219]
- MTD [6]: 16 mg/kg
